Data taken from patent US20240270762A1, “PENICILLIN-BINDING PROTEIN INHIBITORS” (priority 2021, published 2024).
Values after ≈ are worked out from the molar mass of the structure shown.

Experiments:
[1] = molecular target: T1, PBP3 from Pseudomonas aeruginosa (PAO1) (Pseudomonas aeruginosa, UniProt G3XD46); experiment: Bocillin-FL fluorescence polarization competition binding, P. aeruginosa PBP3; settings: Binding affinity to P. aeruginosa PBP3; fluorescence polarization competition binding assay using Bocillin-FL; read-out: P. aeruginosa PBP3 Potency
T1 construct: made in house
Outline: (§1)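 Purified PBP was preincubated with inhibitor (E. coli PBP3 1.5 μM, 30 min; P. aeruginosa PBP3 0.75 μM, A. baumannii PBP3 0.2 μM and PBP1a 1 μM, 15 min), then Bocillin-FL (0.1 μM; 0.05 μM for PBP1a) added and FP read up to 60 min. EC50 = 50% loss of bound probe.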

[2] = molecular target: T2, PBP3 from Acinetobacter baumannii (ATCC 19606) (Acinetobacter baumannii, UniProt A0ABX6CK25); experiment: Bocillin-FL fluorescence polarization competition binding, A. baumannii PBP3; settings: fluorescence polarization competition binding assay using Bocillin-FL; read-out: A. baumannii PBP3 Potency
T2 sequence (A0ABX6CK25 64-610): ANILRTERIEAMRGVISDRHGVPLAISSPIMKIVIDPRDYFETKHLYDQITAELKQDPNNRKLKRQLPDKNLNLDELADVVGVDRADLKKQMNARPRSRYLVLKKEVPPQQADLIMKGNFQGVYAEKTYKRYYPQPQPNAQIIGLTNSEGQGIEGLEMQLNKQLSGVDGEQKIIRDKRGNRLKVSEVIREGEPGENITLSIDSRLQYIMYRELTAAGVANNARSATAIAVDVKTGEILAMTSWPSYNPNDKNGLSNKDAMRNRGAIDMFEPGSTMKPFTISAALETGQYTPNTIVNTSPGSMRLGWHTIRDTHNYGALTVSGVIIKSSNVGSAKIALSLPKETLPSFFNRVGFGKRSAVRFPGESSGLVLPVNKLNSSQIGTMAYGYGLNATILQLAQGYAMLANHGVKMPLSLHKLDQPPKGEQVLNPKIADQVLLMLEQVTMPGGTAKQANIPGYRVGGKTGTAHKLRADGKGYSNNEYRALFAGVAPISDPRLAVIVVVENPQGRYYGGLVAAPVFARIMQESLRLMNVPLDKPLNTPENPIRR
Outline: as §1

A. baumannii PBP2 = A. baumannii PBP2 (Acinetobacter baumannii, UniProt D0C8Z9); experiment: Bocillin-FL competition binding via gel filtration, A. baumannii PBP2
Outline: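 Competitive equilibrium binding; reporter Bocillin-FL. PBP + inhibitor (titration) pre-incubated → Bocillin-FL, 15 min → gel filtration → fluorescence. EC50 from Hill fit of fraction bound vs [inhibitor].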

A. baumannii ATCC 19606 = experiment: microbe, parasite or virus in culture; format: cell-based; settings: Acinetobacter baumannii, ATCC19606, read-out: MIC, A. baumannii ATCC 19606
[3] = system: P. aeruginosa (ΔmexAB-oprM); experiment: Broth microdilution MIC in iron-depleted CAMHB (IDM); format: cell-based; settings: Pseudomonas aeruginosa; iron-depleted CAMHB (IDM); […]; read-out: Minimum inhibitory concentration, P. aeruginosa ΔmexAB-oprM
A. baumannii CDC-0036 = experiment: microbe, parasite or virus in culture; format: cell-based; settings: Acinetobacter baumannii, CDC0036, read-out: MIC, A. baumannii CDC-0036
A. baumannii CDC-0045 = experiment: microbe, parasite or virus in culture; format: cell-based; settings: Acinetobacter baumannii, CDC0045, read-out: MIC, A. baumannii CDC-0045
P. aeruginosa CDC-0110 = experiment: microbe, parasite or virus in culture; format: cell-based; settings: Pseudomonas aeruginosa, CDC0110, read-out: Minimum inhibitory concentration, P. aeruginosa CDC-0110

T1 sequence (G3XD46 whole entry): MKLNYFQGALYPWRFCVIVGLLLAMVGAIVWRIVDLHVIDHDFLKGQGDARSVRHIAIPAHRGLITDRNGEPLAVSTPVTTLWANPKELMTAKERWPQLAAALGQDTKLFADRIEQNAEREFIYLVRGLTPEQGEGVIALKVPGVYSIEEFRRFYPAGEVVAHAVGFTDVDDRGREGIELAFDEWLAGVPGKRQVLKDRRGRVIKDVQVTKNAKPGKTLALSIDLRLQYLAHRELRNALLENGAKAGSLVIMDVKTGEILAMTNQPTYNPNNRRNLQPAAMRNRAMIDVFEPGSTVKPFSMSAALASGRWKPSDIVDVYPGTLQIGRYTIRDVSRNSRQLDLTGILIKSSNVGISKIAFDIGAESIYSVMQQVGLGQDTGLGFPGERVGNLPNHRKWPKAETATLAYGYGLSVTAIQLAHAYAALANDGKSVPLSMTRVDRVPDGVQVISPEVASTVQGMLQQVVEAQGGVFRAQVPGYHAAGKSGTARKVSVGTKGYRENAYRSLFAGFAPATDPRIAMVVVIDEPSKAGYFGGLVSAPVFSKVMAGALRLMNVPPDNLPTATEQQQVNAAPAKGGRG
Chain of A. baumannii PBP2 (D0C8Z9 whole entry): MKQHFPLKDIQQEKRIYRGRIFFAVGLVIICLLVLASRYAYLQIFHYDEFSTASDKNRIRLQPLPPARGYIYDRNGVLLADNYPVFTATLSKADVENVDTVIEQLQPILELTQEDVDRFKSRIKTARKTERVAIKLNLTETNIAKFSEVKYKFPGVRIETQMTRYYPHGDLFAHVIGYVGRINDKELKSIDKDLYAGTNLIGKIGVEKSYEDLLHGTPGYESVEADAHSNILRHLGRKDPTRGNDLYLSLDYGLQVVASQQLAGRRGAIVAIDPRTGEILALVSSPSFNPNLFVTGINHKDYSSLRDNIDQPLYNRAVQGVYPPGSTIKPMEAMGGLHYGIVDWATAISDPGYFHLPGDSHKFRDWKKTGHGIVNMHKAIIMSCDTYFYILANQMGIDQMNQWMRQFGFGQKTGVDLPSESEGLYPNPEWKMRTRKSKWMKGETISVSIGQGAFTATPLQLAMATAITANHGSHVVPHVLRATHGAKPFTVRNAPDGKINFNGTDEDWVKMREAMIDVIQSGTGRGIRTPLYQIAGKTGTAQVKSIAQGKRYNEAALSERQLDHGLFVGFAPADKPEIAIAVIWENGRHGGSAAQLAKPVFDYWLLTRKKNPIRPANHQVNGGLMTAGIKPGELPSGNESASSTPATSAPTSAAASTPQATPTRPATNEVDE

| SMILES | IC50 [1] [µM] | IC50 [2] [µM] | EC50 (A. baumannii PBP2) [µM] | MIC (A. baumannii ATCC 19606) [µg/mL] | MIC [3] [µg/mL] | MIC (A. baumannii CDC-0036) [µg/mL] | MIC (A. baumannii CDC-0045) [µg/mL] | MIC (P. aeruginosa CDC-0110) [µg/mL] |
| --- | --- | --- | --- | --- | --- | --- | --- | --- |
| O=C(O)c1c(F)ccc2c1OB(O)[C@@H](NC(=O)[C@H](NC(=O)N1CCN(C3CCN(C(=O)Nc4cccc(O)c4Cl)CC3)C1=O)c1cc(F)c(O)c(O)c1Cl)C2 [Example 447, (R)-3-((R)-2-(3-(1-((2-chloro-3-hydroxyphenyl)carbamoyl)piperidin-4-yl)-2-oxoimidazolidine-1-carboxamido)-2-(2-chloro-5-fluoro-3,4-dihydroxyphenyl)acetamido)-7-fluoro-2-hydroxy-3,4-dihydro-2H-benzo[e][1,2]oxaborinine-8-carboxylic acid] | < 10 | < 10 | < 10 | < 1 | < 1 | < 1 | < 1 | < 1 |
| O=C(O)c1c(F)ccc2c1OB(O)[C@@H](NC(=O)C(NC(=O)N1CCN(C3CCN(C(=O)Nc4cc(O)ccc4F)CC3)C(=O)C1=O)c1cc(F)c(O)c(O)c1Cl)C2 (stereo partly drawn) [Example 479, (3R)-3-(2-(2-chloro-5-fluoro-3,4-dihydroxyphenyl)-2-(4-(1-((2-fluoro-5-hydroxyphenyl)carbamoyl)piperidin-4-yl)-2,3-dioxopiperazine-1-carboxamido)acetamido)-7-fluoro-2-hydroxy-3,4-dihydro-2H-benzo[e][1,2]oxaborinine-8-carboxylic acid] | < 10 | < 10 | 10 to 50 | < 1 | < 1 | < 1 | < 1 | < 1 |
| O=C(O)c1c(F)ccc2c1OB(O)[C@@H](NC(=O)[C@H](NC(=O)N1CCN(Cc3ccc(O)c(O)c3Cl)C(=O)C1=O)c1ccc(P(=O)(O)O)cc1)C2 (single isomer, unassigned) [Example 160] | < 10 | < 10 | < 10 | < 1 | < 1 | < 1 | < 1 | < 1 |
| O=C(O)c1c(F)ccc2c1OB(O)[C@@H](NC(=O)[C@H](NC(=O)N1CCN(C3CCN(C(=O)c4ccc(F)c(O)c4F)CC3)C1=O)c1cc(F)c(O)c(O)c1Cl)C2 (single isomer, unassigned) [Example 437] | < 10 | < 10 | < 10 | < 1 | < 1 | < 1 | < 1 | < 1 |
| O=C(O)c1c(F)ccc2c1OB(O)[C@@H](NC(=O)[C@H](NC(=O)N1CCN(C3CCN(C(=O)Nc4cccc(O)c4Cl)CC3)C(=O)C1=O)c1cc(F)c(O)c(O)c1Cl)C2 [Example 482, (R)-3-((R)-2-(4-(1-((2-chloro-3-hydroxyphenyl)carbamoyl)piperidin-4-yl)-2,3-dioxopiperazine-1-carboxamido)-2-(2-chloro-5-fluoro-3,4-dihydroxyphenyl)acetamido)-7-fluoro-2-hydroxy-3,4-dihydro-2H-benzo[e][1,2]oxaborinine-8-carboxylic acid] | < 10 | < 10 | 10 to 50 | < 1 | < 1 | < 1 | < 1 | 2 to 4 (≈ 2.39 to 4.79 µM) |
| O=C(O)c1c(F)ccc2c1OB(O)[C@@H](NC(=O)[C@H](NC(=O)N1CCN(C3CCN(C(=O)Nc4cc(O)ccc4F)CC3)C1=O)c1cc(F)c(O)c(O)c1Cl)C2 (single isomer, unassigned) [Example 451] | < 10 | < 10 | < 10 | < 1 | < 1 | < 1 | < 1 | < 1 |
| O=C(O)c1c(F)ccc2c1OB(O)[C@@H](NC(=O)[C@H](NC(=O)N1CCN(Cc3ccc(O)c(O)c3Cl)C(=O)C1=O)c1ccc(P(=O)(O)O)c(F)c1F)C2 [Example 166, (R)-3-((R)-2-(4-(2-chloro-3,4-dihydroxybenzyl)-2,3-dioxopiperazine-1-carboxamido)-2-(2,3-difluoro-4-phosphonophenyl)acetamido)-7-fluoro-2-hydroxy-3,4-dihydro-2H-benzo[e][1,2]oxaborinine-8-carboxylic acid] | < 10 | < 10 | 10 to 50 | < 1 | < 1 | < 1 | < 1 | < 1 |
| O=C(O)c1c(F)ccc2c1OB(O)[C@@H](NC(=O)[C@H](NC(=O)N1CCN(C3CCN(C(=O)Nc4ccc(F)c(O)c4)CC3)C1=O)c1cc(F)c(O)c(O)c1Cl)C2 (single isomer, unassigned) [Example 449] | < 10 | < 10 | < 10 | < 1 | < 1 | < 1 | < 1 | < 1 |
| O=C(O)c1c(F)ccc2c1OB(O)[C@@H](NC(=O)[C@H](NC(=O)N1CCN(C3CCN(C(=O)c4cc(O)c(F)c(O)c4F)CC3)C1=O)c1cc(F)c(O)c(O)c1Cl)C2 (single isomer, unassigned) [Example 444] | < 10 | < 10 | < 10 | < 1 | < 1 | < 1 | < 1 | < 1 |
| O=C(O)c1c(F)ccc2c1OB(O)[C@@H](NC(=O)[C@H](NC(=O)N1CCN(C3CCN(C(=O)Nc4cccc(O)c4)CC3)C1=O)c1cc(F)c(O)c(O)c1Cl)C2 [Example 445, (R)-3-((R)-2-(2-chloro-5-fluoro-3,4-dihydroxyphenyl)-2-(3-(1-((3-hydroxyphenyl)carbamoyl)piperidin-4-yl)-2-oxoimidazolidine-1-carboxamido)acetamido)-7-fluoro-2-hydroxy-3,4-dihydro-2H-benzo[e][1,2]oxaborinine-8-carboxylic acid] | < 10 | < 10 | < 10 | < 1 | < 1 | < 1 | < 1 | < 1 |
| O=C(O)c1c(F)ccc2c1OB(O)[C@@H](NC(=O)[C@H](NC(=O)N1CCN(C3CCN(C(=O)Nc4c(F)ccc(O)c4F)CC3)C1=O)c1cc(F)c(O)c(O)c1Cl)C2 (single isomer, unassigned) [Example 454] | < 10 | < 10 | < 10 | < 1 | < 1 | < 1 | < 1 | < 1 |
| O=C(O)c1c(F)ccc2c1OB(O)[C@@H](NC(=O)[C@H](NC(=O)N1CCN(C3CCN(C(=O)c4ccc(F)c(O)c4Cl)CC3)C1=O)c1cc(F)c(O)c(O)c1Cl)C2 [Example 438, (R)-3-((R)-2-(3-(1-(2-chloro-4-fluoro-3-hydroxybenzoyl)piperidin-4-yl)-2-oxoimidazolidine-1-carboxamido)-2-(2-chloro-5-fluoro-3,4-dihydroxyphenyl)acetamido)-7-fluoro-2-hydroxy-3,4-dihydro-2H-benzo[e][1,2]oxaborinine-8-carboxylic acid] | < 10 | < 10 | < 10 | < 1 | < 1 | < 1 | < 1 | < 1 |
| O=C(NCCS(=O)(=O)N1CCN(C(=O)N[C@@H](C(=O)N[C@H]2Cc3ccc(F)c(C(=O)O)c3OB2O)c2ccc(P(=O)(O)O)cc2)C1=O)c1ccc(O)c(O)c1Cl (single isomer, unassigned) [Example 168] | < 10 | < 10 | < 10 | < 1 | 8 to 16 (≈ 9.66 to 19.3 µM) | 2 to 4 (≈ 2.42 to 4.83 µM) | 2 to 4 (≈ 2.42 to 4.83 µM) | 32 to 64 (≈ 38.7 to 77.3 µM) |
| O=C(O)c1c(F)ccc2c1OB(O)[C@@H](NC(=O)[C@H](NC(=O)N1CCN(C3CCN(C(=O)c4cc(O)cc(O)c4)CC3)C1=O)c1cc(F)c(O)c(O)c1Cl)C2 (single isomer, unassigned) [Example 442] | < 10 | < 10 | < 10 | < 1 | < 1 | < 1 | < 1 | < 1 |
